These results are taken from ChEMBL document CHEMBL5236642, “Discovery of structural diverse reversible BTK inhibitors utilized to develop a novel in vivo CD69 and CD86 PK/PD mouse model” (Bioorg Med Chem Lett, 2023).

A short description of data set [1]: Solubility of the compound. In kind it is physicochemical.
Data set [2] in a line: Apparent permeability from apical to basolateral side in human CaCo-2/TC-7 cells. In kind it is ADME, cell-based, Caco2/TC7.
The nature of data set [3]: Oral bioavailability in Sprague-Dawley rat at 5 mg/kg. In kind it is ADME, organism-based. The following applies: in vivo.
A short description of data set [4]: Volume of distribution at steady state in Sprague-Dawley rat at 1 mg/kg, iv. In kind it is ADME, organism-based. As to conditions: in vivo, read-out: Vdss.
The nature of data set [5]: Half-life in Sprague-Dawley rat at 1 mg/kg, iv. In kind it is ADME, organism-based. As to conditions: in vivo.
Data set [6] can be described thus: Tmax in Sprague-Dawley rat at 5 mg/kg, po. In kind it is ADME, organism-based. As to conditions: in vivo.
The nature of data set [7]: Clearance in rat at 2 mg/kg, iv. In kind it is ADME, organism-based. The following applies: in vivo.
Data set [8] in a line: Oral bioavailability in rat at 2 mg/kg. As to conditions: in vivo. In kind it is ADME, organism-based.
Data set [9] in a line: Tmax in rat at 2 mg/kg, po. In kind it is ADME, organism-based. As to conditions: in vivo.
A short description of data set [10]: Half-life in rat at 2 mg/kg, iv. As to conditions: in vivo. In kind it is ADME, organism-based.

The structures appear in SMILES notation. Converted amounts (≈) assume the structure as drawn.

Turning to `O=C(CNc1cc(Cl)cc(Cl)c1)NC1CCCN(c2ncnc3[nH]ccc23)C1` (stereo not given), the solubility (commonly how much of the substance goes into solution per volume) in data set [1] was found to be 39 µg/mL (≈ 93 µM).
Turning to `O=C(CNc1cc(Cl)cc(Cl)c1)N1CC[C@H]2CCN(c3ncnc4[nH]ccc34)[C@H]2C1`, the Papp A→B – broadly, the apparent permeability from the apical to the basolateral side of a cell layer – in [2] was 190 ×10⁻⁶ cm/s. For the same molecule, the bioavailability (commonly dose-corrected exposure relative to a reference, in per cent) in [3] turned out to be 34%. In data set [4], the Vd was 1.1 L/kg. In addition, in data set [5], the half-life (usually the time in which the quantity being followed falls by half) is 0.9 h. For the same molecule, the Tmax – broadly, the time from dosing to the highest level – in data set [6] stood at 0.87 h.
On to `C[C@@H]1[C@H](Nc2ncnc3[nH]ccc23)CCCN1C(=O)CNc1cc(Cl)cc(Cl)c1`, for which the Papp A→B in [2] is 150 ×10⁻⁶ cm/s. The same molecule showed a bioavailability in data set [3] of 23%. Besides, the Vd in [4] came out at 1.3 L/kg. In addition, the half-life in data set [5] is 5.3 h. Also, the time to peak (Tmax) in [6] is 1.6 h.
Take `O=C(CNc1cc(Cl)cc(Cl)c1)N1CCC[C@@H](Nc2ncnc3[nH]ccc23)C1`: the CL in data set [7] came out at 8 mg/mL/kg. In addition, the bioavailability in data set [8] was found to be 98%. For the same molecule, the time of peak concentration (Tmax) in data set [9] amounted to 2 h. For the same molecule, in data set [10], the half-life is 13.3 h.
